Test results taken from paper PMC9701179, “New tricyclic systems as photosensitizers towards triple negative breast cancer cells” (Archives of Pharmacal Research, 2022).
Read-outs that look alike come from different tables or passages of the source.

Assays:
MDA-MB-231 cells [1] = assay: MTT cytotoxicity/photocytotoxicity test on human TNBC MDA-MB-231 cells; assay type: cell-based; settings: for IC50: Homo sapiens
Protocol: The irradiation device used for the irradiation of cell cultures during the assays was a black box equipped with two Philips UVA lamps with an irradiance of 17 mW cm^−2 and a centered emission peak at 365 nm; UVA irradiance was measured using a Waldmann Variocontrol radiometer, equipped with a UVA sensor. The box was maintained at room temperature inside with a fan and the multiwell plates were placed onto a water-refrigerated metal block.
Human triple negative (TNBC) breast MDA-MB-231 carcinoma cells were obtained from American Type Culture Collection (ATCC, Rockville, MD, USA). Human embryonic kidney HEK293 cells were obtained from the European Collection of Cell Cultures (ECACC, Salisbury, UK). Cell lines were maintained in the logarithmic phase at 37 °C in a 5% CO2 atmosphere using the following culture media containing 10% foetal calf serum (Euroclone, Milan, Italy), antibiotics (50 units/mL penicillin and 50 μg/mL streptomycin) and 2 mM l-glutamine: (i) RPMI-1640 medium (Euroclone, Milan, Italy) for MDA-MB-231 4 cells; (ii) DMEM (Euroclone, Milan, Italy) for HEK293 cells.
Cells (5–8 × 10^3 cells/well, dependent upon the growth characteristics of the cell line) were seeded in 96-well microplates in growth medium (100 μL). After 24 h, the medium was removed and replaced with a fresh one containing the compound to be studied at the appropriate concentration. Triplicate cultures were established for each treatment. For photocytotoxicity studies, after 1 h of incubation the medium was replaced with PBS and cells were treated with 2.0 J cm^−2 of UVA light. After irradiation, PBS was replaced with complete proliferation media. For pre-irradiation studies, instead, compounds in PBS were irradiated with 2.0 J cm^−2 of UVA light and subsequently cells were treated with pre-irradiated solutions. Following 24 h, each well was treated with 10 μL of a 5 mg/mL MTT saline solution, and following 5 h of incubation, 100 μL of a sodium dodecyl sulfate (SDS) solution in HCl 0.01 M were added. After an overnight incubation, cell growth inhibition was detected by measuring the absorbance of each well at 570 nm using a Bio-Rad 680 microplate reader. Mean absorbance for each drug dose was expressed as a percentage of the control untreated well absorbance and plotted against drug concentration. IC50 values, the drug concentrations that reduce the mean absorbance at 570 nm to 50% of those in the untreated control wells, were calculated by the four-parameter logistic (4-PL) model. Evaluation was based on means from at least four independent experiments.
The new synthetized pyrrolo[1,2-h][1,7]naphthyridinones 7 and pyrido[2,3-c]pyrrolo[1,2-a]azepinones 8 were screened for their cytotoxicity (in the dark) and photocitotoxicity (upon UVA light irradiation at 2.0 J/cm^2) profile on human TNBC cells, MDA-MB-231. The cytotoxicity/photocytotoxicity parameters, expressed in terms of IC50 values obtained by MTT test after 24 h of drug-exposure, are listed in Table 2.

MDA-MB-231 cells [2] = assay: Mitochondrial membrane potential (Mito-ID kit); assay type: cell-based, human; settings: MDA-MB-231, UVA 2.0 J/cm^2; CCCP positive control
Protocol: The ΔΨ was assayed using the Mito-ID® Membrane Potential Kit according to the manufacturer’s instructions (Enzo Life Sciences, Farmingdale, NY, USA) as previously described. Briefly, MDA-MB-231 cells (8 × 10^3 per well) were seeded in 96-well plates; after 24 h, cells were washed with PBS and loaded with Mito-ID Detection Reagent for 30 min at 37 °C in the dark. Afterwards, cells were incubated with increasing concentrations of tested compounds for 90 min and after that exposed to UVA light (2.0 J/cm^2). CCCP (Carbonyl cyanide 3-chlorophenyl-hydrazone) was used as positive control. Fluorescence intensity was estimated using a VICTOR X3 (PerkinElmer, USA) plate reader at 490 (excitation) and 590 nm (emission).
Induction of ROS production can in turn prompt the collapse of mitochondrial membrane potential as well as loss of mitochondrial integrity and functioning. […] MDA-MB-231 TNBC cells were treated with tested compounds upon UVA irradiation and the percentage of cells with hypopolarized mitochondrial membrane potential was determined fluorometrically by means of the Mito-ID® Membrane Potential Kit.
Fig. 5 Effects on mitochondrial membrane potential (A) and cell death induction (B) in human breast MDA-MB-231 cancer cells. A Cells were treated with 7h and 8e and stained with TMRM (10 nM). Fluorescence was estimated at 490 nm (excitation) and 590 nm (emission). Data are the means of five independent experiments. Error bars indicate S.D. * P < 0.05. B Cells were treated with concentrations of 7h and 8e equal to IC50 for 24 h and stained with the fluorescent dyes Hoechst 33342 and PI

MDA-MB-231 cells [3] = assay: Intracellular ROS production (CM-H2DCFDA) under UVA; assay type: cell-based, human; settings: MDA-MB-231, 25 µM, 90 min, UVA 2.0 J/cm^2; antimycin 3 µM positive control
Protocol: The production of ROS was measured in MDA-MB-231 cells (10^4 per well) grown for 24 h in a 96-well plate in RPMI medium without phenol red (Merk, Germany). Cells were then washed with PBS and loaded with 10 μM 5-(and-6)-chloromethyl-2′,7′-dichlorodihydrofluorescein diacetate acetyl ester (CM–H2DCFDA) (Molecular Probes-Invitrogen, Eugene, OR) for 45 min, in the dark. Afterwards, cells were washed with PBS and incubated with tested compounds (25 µM) for 90 min and after that exposed to UVA light (2.0 J/cm^2). Fluorescence increase was estimated utilizing the wavelengths of 485 nm (excitation) and 527 nm (emission) in a VICTOR X3 (PerkinElmer, USA) plate reader. Antimycin (3 μM, Merk), a potent inhibitor of Complex III in the electron transport chain, was used as positive control.
ROS production under light (UVA, 2.0 J/cm^2) was evaluated in MDA-MB-231 cell samples treated with increasing concentrations of tested compounds or antimycin, a potent inhibitor of Complex III of mitochondria electron chain, used as a positive control under the same experimental conditions (Fig. 4).
Fig. 4 Cellular ROS production (A) and total thiol redox state (B). A Effect of UVA activated tested compounds (25 µM) or antimycin (3 µM) on hydrogen peroxide formation in MDA-MB-231 cancer cells. B Sulfhydryl content in MDA-MB-231 cancer cells incubated for 24 h with UVA activated tested compounds. The sulfhydryl group amount was determined by the DTNB assay. Error bars indicate S.D

[4] = MDA-MB-231, in the dark, 1 h pre-treatment, recovered for total 24 h, read-out: Dark IC50 (µM) ± S.D
[5] = light or radiation study, MDA-MB-231, 1 h pre-treatment, UVA 2.0 J/cm^2, recovered for total 24 h, read-out: UVA (2.0 J/cm^2) IC50 (µM) ± S.D

Compound: O=c1[nH]c2c(cc1S(=O)(=O)c1ccccc1)CCn1cccc1-2 [Compound 7a, 3-(benzenesulfonyl)-5,6-dihydropyrrolo[1,2-h][1,7]naphthyridin-2(1H)-one]
- melting point: 317 to 318 °C
- IC50 (MDA-MB-231 cells [1]; [4]): > 50 µM
- IC50 (MDA-MB-231 cells [1]; [5]): > 50 µM

Compound: CCOC(=O)c1ccc2n1CCc1cc(S(=O)(=O)c3ccccc3)c(=O)[nH]c1-2 [Compound 7b, Ethyl 3-(benzenesulfonyl)-2-oxo-1,2,5,6-tetrahydropyrrolo[1,2-h][1,7]naphthyridine-8-carboxylate]
- IC50 (MDA-MB-231 cells [1]; [4]): > 50 µM
- IC50 (MDA-MB-231 cells [1]; [5]): 21 ± 0.4 µM

Compound: CC(C)OC(=O)c1ccc2n1CCc1cc(S(=O)(=O)c3ccccc3)c(=O)[nH]c1-2 [Compound 7c, Propan-2-yl 3-(benzenesulfonyl)-2-oxo-1,2,5,6-tetrahydropyrrolo[1,2-h][1,7]naphthyridine-8-carboxylate]
- IC50 (MDA-MB-231 cells [1]; [4]): > 50 µM
- IC50 (MDA-MB-231 cells [1]; [5]): > 50 µM

Compound: Cn1c2c(cc(S(=O)(=O)c3ccccc3)c1=O)CCn1cccc1-2 [Compound 7d, 1-Methyl-3-(benzenesulfonyl)-5,6-dihydropyrrolo[1,2-h][1,7]naphthyridin-2(1H)-one]
- melting point: 268 to 269 °C
- IC50 (MDA-MB-231 cells [1]; [4]): > 50 µM
- IC50 (MDA-MB-231 cells [1]; [5]): > 50 µM

Compound: CCOC(=O)c1ccc2n1CCc1cc(S(=O)(=O)c3ccccc3)c(=O)n(C)c1-2 [Compound 7e, Ethyl 3-(benzenesulfonyl)-1-methyl-2-oxo-1,2,5,6-tetrahydropyrrolo[1,2-h][1,7]naphthyridine-8-carboxylate]
- Cells with depolarized mitochondria (mitochondrial membrane potential) (MDA-MB-231 cells [2]): did not induce a substantial change in mitochondrial membrane potential
- IC50 (MDA-MB-231 cells [1]; [4]): > 50 µM
- IC50 (MDA-MB-231 cells [1]; [5]): > 50 µM
- Cellular ROS production (hydrogen peroxide formation) (MDA-MB-231 cells [3]): hardly effective in inducing any ROS basal level production increase

Compound: CC(C)OC(=O)c1ccc2n1CCc1cc(S(=O)(=O)c3ccccc3)c(=O)n(C)c1-2 [Compound 7f, Propan-2-yl 3-(benzenesulfonyl)-1-methyl-2-oxo-1,2,5,6-tetrahydropyrrolo[1,2-h][1,7]naphthyridine-8-carboxylate]
- IC50 (MDA-MB-231 cells [1]; [4]): > 50 µM
- IC50 (MDA-MB-231 cells [1]; [5]): > 50 µM

Compound: COc1nc2c(cc1S(=O)(=O)c1ccccc1)CCn1cccc1-2 [Compound 7g, 2-methoxy-3-(phenylsulfonyl)-5,6-dihydropyrrolo[1,2-h][1,7]naphthyridine]
- melting point: 210 to 211 °C
- IC50 (MDA-MB-231 cells [1]; [4]): > 50 µM
- IC50 (MDA-MB-231 cells [1]; [5]): > 50 µM

Compound: COc1nc2c(cc1S(=O)(=O)c1ccccc1)CCn1c(C(=O)OC(C)C)ccc1-2 [Compound 7i, Propan-2-yl 3-(benzenesulfonyl)-2-methoxy-5,6-dihydropyrrolo[1,2-h][1,7]naphthyridine-8-carboxylate]
- IC50 (MDA-MB-231 cells [1]; [4]): > 50 µM
- IC50 (MDA-MB-231 cells [1]; [5]): 7.9 ± 0.5 µM

Compound: CCOC(=O)C1(Br)C=CC2=C3NC(=O)C(S(=O)(=O)c4ccccc4)C=C3CCN21 (stereo not drawn) [Compound 7j, Ethyl 3-(benzenesulfonyl)-8-bromo-2-oxo-1,2,5,6-tetrahydropyrrolo[1,2-h][1,7]naphthyridine-8-carboxylate]
- melting point: 196 to 197 °C

Compound: CC(C)OC(=O)C1(Br)C=CC2=C3NC(=O)C(S(=O)(=O)c4ccccc4)C=C3CCN21 (stereo not drawn) [Compound 7k, Propan-2-yl 3-(benzenesulfonyl)-8-bromo-2-oxo-1,2,5,6-tetrahydropyrrolo[1,2-h][1,7]naphthyridine-8-carboxylate]
- melting point: 174 to 175 °C

Compound: CCOC(=O)c1ccc2n1CCCc1cc(S(=O)(=O)c3ccccc3)c(=O)[nH]c1-2 [Compound 8a, Ethyl 3-(benzenesulfonyl)-2-oxo-1,5,6,7-tetrahydro-2H-pyrido[2,3-c]pyrrolo[1,2-a]azepine-9-carboxylate]
- IC50 (MDA-MB-231 cells [1]; [4]): > 50 µM
- IC50 (MDA-MB-231 cells [1]; [5]): > 50 µM

Compound: CC(C)OC(=O)c1ccc2n1CCCc1cc(S(=O)(=O)c3ccccc3)c(=O)[nH]c1-2 [Compound 8b, Propan-2-yl 3-(benzenesulfonyl)-2-oxo-1,5,6,7-tetrahydro-2H-pyrido[2,3-c]pyrrolo[1,2-a]azepine-9-carboxylate]
- IC50 (MDA-MB-231 cells [1]; [4]): > 50 µM
- IC50 (MDA-MB-231 cells [1]; [5]): > 50 µM

Compound: CCOC(=O)c1ccc2n1CCCc1cc(S(=O)(=O)c3ccccc3)c(=O)n(C)c1-2 [Compound 8c, Ethyl 3-(benzenesulfonyl)-1-methyl-2-oxo-1,5,6,7-tetrahydro-2H-pyrido[2,3-c]pyrrolo[1,2-a]azepine-9-carboxylate]
- IC50 (MDA-MB-231 cells [1]; [4]): > 50 µM
- IC50 (MDA-MB-231 cells [1]; [5]): 24.9 ± 2.8 µM

Compound: COc1nc2c(cc1S(=O)(=O)c1ccccc1)CCCn1c(C(=O)OC(C)C)ccc1-2 [Compound 8f, Propan-2-yl 3-(benzenesulfonyl)-2-methoxy-6,7-dihydro-5H-pyrido[2,3-c]pyrrolo[1,2-a]azepine-9-carboxylate]
- IC50 (MDA-MB-231 cells [1]; [4]): > 50 µM
- IC50 (MDA-MB-231 cells [1]; [5]): 23.7 ± 1.5 µM

Compound: CCOC(=O)C1(Br)C=CC2=C3NC(=O)C(S(=O)(=O)c4ccccc4)C=C3CCCN21 (stereo not drawn) [Compound 8g, Ethyl 3-(benzenesulfonyl)-9-bromo-2-oxo-1,5,6,7-tetrahydro-2H-pyrido[2,3-c]pyrrolo[1,2-a]azepine-9-carboxylate]
- melting point: 172 to 173 °C

Compound: CC(C)OC(=O)C1(Br)C=CC2=C3NC(=O)C(S(=O)(=O)c4ccccc4)C=C3CCCN21 (stereo not drawn) [Compound 8h, Propan-2-yl 3-(benzenesulfonyl)-9-bromo-2-oxo-1,5,6,7-tetrahydro-2H-pyrido[2,3-c]pyrrolo[1,2-a]azepine-9-carboxylate]
- melting point: 167 to 168 °C
- IC50 (MDA-MB-231 cells [1]; [4]): > 50 µM
- IC50 (MDA-MB-231 cells [1]; [5]): > 50 µM
- UVA (2.0 J/cm^2) IC50 (µM) ± S.D (MDA-MB-231 cells [1]; MDA-MB-231, 1 h pre-treatment, UVA 2.0 J/cm^2, recovered for total 24 h): completely ineffective in inhibiting cancer cell proliferation upon irradiation
